According to publication PMC13210772, “Dual FLT3/MAPK14 Proteolysis-Targeting Chimera (PROTAC) Induces Potent Acute Myeloid Leukemia Cell Death” (Pharmaceuticals, 2026):
In brackets after ≈: the same amount, converted by molar mass.

What was measured:
Nephelometric solubility = assay type: physicochemical; conditions: aqueous buffer, kinetic from dmso stock; PBS buffer, nephelometry
Method: In addition to the degradation and determination of the effects on AML cancer cells, we also determined some physicochemical parameters to assess whether the compounds are suitable for further in vivo studies. Nephelometric measurements were performed to determine the water solubility of some compounds. […] The nephelometric technique has been previously described as a high-throughput method for the solubility determination of compounds in the solvent of interest. This technique measures the intensity of scattered light when visible light passes through a suspension of the tested compound. Relative turbidity is an indication of the insolubility of compounds.
First, equidistant and logarithmic pre-dilutions were prepared in a 96-well plate with round bottoms, using 25 mM stock solutions of compounds MA68 and MA191 in DMSO. Then, 5 μL of each pre-dilution was added to 245 μL of PBS buffer in a 96-well plate with straight bottoms. Quadruplets were prepared for the blank (DMSO + PBS), and final concentrations (one plate per compound) were tested. The final concentrations measured started from 500 μM to 0.78125 μM. A NEPHELOstarplus (BMG LABTECH GmbH, Ortenberg, Germany) was used to measure the solubility, and omega-data analysis software (version 3.42 R5) was used to analyze the results.

CAMK1D = target: T1, CAMK1D (Homo sapiens, UniProt Q8IU85); test: NanoBRET CELLinib128; assay type: binding; conditions: 100% no effect, 0% complete tracer displacement, read-out: Tracer bound
T1 construct: Full-length kinase ORF (Promega, Madison, WI, USA) cloned in frame with a NanoLuc-vector was transfected into HEK293T cells; host or cells: HEK293T

CAMK1G = target: T2, CAMK1G (Homo sapiens, UniProt Q96NX5); test: NanoBRET CELLinib128; assay type: binding; conditions: 100% no effect, 0% complete tracer displacement, read-out: Tracer bound
T2 construct: Full-length kinase ORF (Promega, Madison, WI, USA) cloned in frame with a NanoLuc-vector was transfected into HEK293T cells; host or cells: HEK293T

CDK2-CCNE1 = target: T3, CDK2-CCNE1 (Homo sapiens, UniProt P24941); test: NanoBRET CELLinib128; assay type: binding; conditions: 1 µM; 100% no effect, 0% complete tracer displacement
T3 construct: Full-length kinase ORF (Promega, Madison, WI, USA) cloned in frame with a NanoLuc-vector was transfected into HEK293T cells; host or cells: HEK293T
Method: (§1) To get an impression about the binding strength of the PROTAC MA191 and the reference inhibitor MA68 to other kinases besides FLT3-ITD the binding on a kinase panel of further 128 representative protein kinases at 1 μM concentration was tested using the NanoBRET^TM cellular target engagement assay (CELLinib128 assay, CELLinib GmbH, Frankfurt, Germany). […] In none of the 128 kinases MA191 was able to displace the tracer (inhibitor) used by more than 50%, Table S1, Supplementary Information).
(§2) The CELLinib128 assay was performed by CELLinib GmbH, Frankfurt (Germany) as described previously. In brief: Full-length kinase ORF (Promega, Madison, WI, USA) cloned in frame with a NanoLuc-vector was transfected into HEK293T cells in Opti-MEM without phenol red (Life Technologies, Carlsbad, CA, USA) at a density of 2 × 10^5 cells/mL using FuGENE HD (Promega, E2312) and proteins were allowed to express for 20 h. For CDKs, where indicated below, an excess of an activator without an NLuc-fusion was cotransfected. […] The system was allowed to equilibrate at 37 °C for 2 h and 5% CO2 prior to BRET measurements. For PKCs, a chemical activator PMA was added in a final concentration of 1 µM was added together with test compounds and tracers (Promega, V1171). To measure BRET, NanoBRET^TM NanoGlo substrate + extracellular NanoLuc inhibitor (Promega, N2160) were added as per the manufacturer’s protocol, and filtered luminescence was measured (450 nm BP filter (donor) and 610 nm LP filter (acceptor)). For the 1-shot test compounds, data were normalized to the tracer control and the background control or control compound plateau and an average and SD were calculated. […] For the control compounds competitive displacement data were normalized to the tracer Ctrl and the background Ctrl and then plotted and fitted using GraphPad Prism 10 software using a normalized 3-parameter curve fit with the following equation: Y = 100/(1 + 10^X−LogIC50).

ERN2 = target: T4, ERN2 (Homo sapiens, UniProt Q76MJ5); test: NanoBRET CELLinib128; assay type: binding; conditions: 100% no effect, 0% complete tracer displacement, read-out: Tracer bound
T4 construct: Full-length kinase ORF (Promega, Madison, WI, USA) cloned in frame with a NanoLuc-vector was transfected into HEK293T cells; host or cells: HEK293T
Method: as §1, §2

SIK1 = target: T5, SIK1 (Homo sapiens, UniProt P57059); test: NanoBRET CELLinib128; assay type: binding; conditions: 1 µM; 100% no effect, 0% complete tracer displacement
T5 construct: Full-length kinase ORF (Promega, Madison, WI, USA) cloned in frame with a NanoLuc-vector was transfected into HEK293T cells; host or cells: HEK293T
Method: as §1, §2

TRKA = target: T6, TRKA (Homo sapiens, UniProt P04629); test: NanoBRET CELLinib128; assay type: binding; conditions: 100% no effect, 0% complete tracer displacement, read-out: Tracer bound
T6 construct: Full-length kinase ORF (Promega, Madison, WI, USA) cloned in frame with a NanoLuc-vector; host or cells: HEK293T
Method: as §1, §2

EPHA5 = target: T7, EPHA5 (Homo sapiens, UniProt P54756); test: NanoBRET CELLinib128; assay type: binding; conditions: 1 µM; 100% no effect, 0% complete tracer displacement
T7 construct: Full-length kinase ORF (Promega, Madison, WI, USA) cloned in frame with a NanoLuc-vector was transfected into HEK293T cells; host or cells: HEK293T

FRK = target: T8, FRK (Homo sapiens, UniProt P42685); test: NanoBRET CELLinib128; assay type: binding; conditions: 100% no effect, 0% complete tracer displacement, read-out: Tracer bound
T8 construct: Full-length kinase ORF (Promega, Madison, WI, USA) cloned in frame with a NanoLuc-vector was transfected into HEK293T cells; host or cells: HEK293T

MARK2 = target: T9, MARK2 (Homo sapiens, UniProt Q7KZI7); test: NanoBRET CELLinib128; assay type: binding; conditions: 100% no effect, 0% complete tracer displacement, read-out: Tracer bound
T9 construct: Full-length kinase ORF (Promega, Madison, WI, USA) cloned in frame with a NanoLuc-vector was transfected into HEK293T cells; host or cells: HEK293T

STK17B = target: T10, STK17B (Homo sapiens, UniProt O94768); test: NanoBRET CELLinib128; assay type: binding; conditions: 100% no effect, 0% complete tracer displacement, read-out: Tracer bound
T10 construct: Full-length kinase ORF (Promega, Madison, WI, USA) cloned in frame with a NanoLuc-vector was transfected into HEK293T cells; host or cells: HEK293T

CSNK1D = CSNK1D (Homo sapiens, UniProt P48730); test: NanoBRET CELLinib128; conditions: read-out: Tracer bound
EPHA1 = EPHA1 (Homo sapiens, UniProt P21709); test: NanoBRET CELLinib128; conditions: read-out: Tracer bound
EPHB1 = EPHB1 (Homo sapiens, UniProt P54762); test: NanoBRET CELLinib128; conditions: read-out: Tracer bound
IGF1R = IGF1R (Homo sapiens, UniProt P08069); test: NanoBRET CELLinib128; conditions: read-out: Tracer bound
IRAK1 = IRAK1 (Homo sapiens, UniProt P51617); test: NanoBRET CELLinib128; conditions: read-out: Tracer bound
MARK3 = MARK3 (Homo sapiens, UniProt P27448); test: NanoBRET CELLinib128; conditions: read-out: Tracer bound
STK26 = STK26 (Homo sapiens, UniProt Q9P289); test: NanoBRET CELLinib128; conditions: read-out: Tracer bound
STK32B = STK32B (Homo sapiens, UniProt Q9NY57); test: NanoBRET CELLinib128; conditions: read-out: Tracer bound
YES1 = YES1 (Homo sapiens, UniProt P07947); test: NanoBRET CELLinib128; conditions: read-out: Tracer bound
[1] = test system: 128 representative protein kinases; test: NanoBRET CELLinib128 kinase selectivity panel, summary; conditions: 1 μM

T4 sequence (Q76MJ5 35-926): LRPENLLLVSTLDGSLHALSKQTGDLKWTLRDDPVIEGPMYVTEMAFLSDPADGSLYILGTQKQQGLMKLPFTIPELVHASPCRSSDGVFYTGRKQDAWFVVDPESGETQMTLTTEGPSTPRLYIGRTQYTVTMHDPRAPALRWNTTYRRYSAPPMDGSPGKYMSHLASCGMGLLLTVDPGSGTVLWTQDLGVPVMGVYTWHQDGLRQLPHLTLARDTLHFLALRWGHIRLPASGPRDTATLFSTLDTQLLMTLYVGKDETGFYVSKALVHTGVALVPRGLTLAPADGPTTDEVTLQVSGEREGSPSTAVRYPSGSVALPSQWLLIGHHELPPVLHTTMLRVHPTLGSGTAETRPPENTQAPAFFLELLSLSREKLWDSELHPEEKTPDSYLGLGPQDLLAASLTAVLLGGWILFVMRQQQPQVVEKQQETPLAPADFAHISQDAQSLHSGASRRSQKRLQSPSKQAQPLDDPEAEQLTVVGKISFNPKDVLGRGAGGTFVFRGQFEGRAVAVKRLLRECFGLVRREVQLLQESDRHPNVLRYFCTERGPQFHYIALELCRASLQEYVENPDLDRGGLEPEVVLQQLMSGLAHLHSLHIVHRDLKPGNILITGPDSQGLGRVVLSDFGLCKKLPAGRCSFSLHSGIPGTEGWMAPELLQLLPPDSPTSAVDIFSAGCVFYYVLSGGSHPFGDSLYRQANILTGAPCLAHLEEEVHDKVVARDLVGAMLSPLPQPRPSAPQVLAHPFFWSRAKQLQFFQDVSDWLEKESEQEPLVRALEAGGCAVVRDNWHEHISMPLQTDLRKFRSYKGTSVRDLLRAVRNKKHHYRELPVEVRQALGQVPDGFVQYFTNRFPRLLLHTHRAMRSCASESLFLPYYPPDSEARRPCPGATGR
T2 sequence (Q96NX5 whole entry): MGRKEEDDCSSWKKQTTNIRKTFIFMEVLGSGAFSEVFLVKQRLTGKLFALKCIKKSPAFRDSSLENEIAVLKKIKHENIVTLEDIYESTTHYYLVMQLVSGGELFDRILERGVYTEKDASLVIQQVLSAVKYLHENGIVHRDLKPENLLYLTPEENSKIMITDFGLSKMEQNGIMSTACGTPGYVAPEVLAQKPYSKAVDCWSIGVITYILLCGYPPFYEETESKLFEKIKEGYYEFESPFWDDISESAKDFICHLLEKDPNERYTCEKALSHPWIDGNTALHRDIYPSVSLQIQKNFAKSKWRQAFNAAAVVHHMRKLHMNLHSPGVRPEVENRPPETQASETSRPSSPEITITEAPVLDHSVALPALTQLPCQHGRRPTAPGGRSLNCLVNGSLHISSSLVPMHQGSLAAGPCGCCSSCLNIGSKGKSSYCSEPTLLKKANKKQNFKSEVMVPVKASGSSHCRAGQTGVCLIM
CSNK1D, sequence (P48730 whole entry): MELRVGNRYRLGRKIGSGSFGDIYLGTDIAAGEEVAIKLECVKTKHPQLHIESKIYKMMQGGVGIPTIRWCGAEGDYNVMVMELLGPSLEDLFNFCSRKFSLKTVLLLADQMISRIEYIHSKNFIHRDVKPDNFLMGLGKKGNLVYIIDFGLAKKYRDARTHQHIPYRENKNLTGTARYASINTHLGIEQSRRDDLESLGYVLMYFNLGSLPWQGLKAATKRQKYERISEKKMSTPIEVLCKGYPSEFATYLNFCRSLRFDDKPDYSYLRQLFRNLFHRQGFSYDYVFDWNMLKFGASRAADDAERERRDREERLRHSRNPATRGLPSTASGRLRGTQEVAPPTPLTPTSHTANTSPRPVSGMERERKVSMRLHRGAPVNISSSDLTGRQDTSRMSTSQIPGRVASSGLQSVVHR
EPHB1, sequence (P54762 18-984): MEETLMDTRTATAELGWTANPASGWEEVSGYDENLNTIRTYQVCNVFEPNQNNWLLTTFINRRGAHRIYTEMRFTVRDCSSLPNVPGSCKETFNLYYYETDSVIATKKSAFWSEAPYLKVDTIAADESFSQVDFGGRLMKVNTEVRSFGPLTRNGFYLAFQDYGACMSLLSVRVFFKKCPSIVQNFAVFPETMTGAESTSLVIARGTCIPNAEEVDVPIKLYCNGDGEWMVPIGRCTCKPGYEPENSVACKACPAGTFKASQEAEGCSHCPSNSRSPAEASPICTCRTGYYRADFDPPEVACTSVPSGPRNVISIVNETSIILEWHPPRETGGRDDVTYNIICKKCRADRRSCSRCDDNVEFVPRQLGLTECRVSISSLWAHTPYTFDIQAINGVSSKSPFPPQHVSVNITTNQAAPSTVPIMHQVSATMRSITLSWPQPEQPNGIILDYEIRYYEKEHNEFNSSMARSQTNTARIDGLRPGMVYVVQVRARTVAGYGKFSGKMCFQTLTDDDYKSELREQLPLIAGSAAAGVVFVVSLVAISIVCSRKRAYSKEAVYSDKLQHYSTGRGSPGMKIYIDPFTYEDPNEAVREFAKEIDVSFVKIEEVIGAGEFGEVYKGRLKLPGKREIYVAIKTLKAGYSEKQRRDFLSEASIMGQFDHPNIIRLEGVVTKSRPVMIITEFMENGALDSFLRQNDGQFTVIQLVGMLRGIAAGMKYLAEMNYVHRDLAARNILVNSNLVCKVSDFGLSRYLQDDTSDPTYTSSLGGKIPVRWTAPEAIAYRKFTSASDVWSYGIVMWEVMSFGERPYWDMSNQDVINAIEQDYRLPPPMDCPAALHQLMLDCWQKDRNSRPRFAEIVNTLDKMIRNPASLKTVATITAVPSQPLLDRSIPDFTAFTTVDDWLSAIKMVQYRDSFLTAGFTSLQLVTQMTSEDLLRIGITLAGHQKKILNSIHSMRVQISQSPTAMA
T10 sequence (O94768 whole entry): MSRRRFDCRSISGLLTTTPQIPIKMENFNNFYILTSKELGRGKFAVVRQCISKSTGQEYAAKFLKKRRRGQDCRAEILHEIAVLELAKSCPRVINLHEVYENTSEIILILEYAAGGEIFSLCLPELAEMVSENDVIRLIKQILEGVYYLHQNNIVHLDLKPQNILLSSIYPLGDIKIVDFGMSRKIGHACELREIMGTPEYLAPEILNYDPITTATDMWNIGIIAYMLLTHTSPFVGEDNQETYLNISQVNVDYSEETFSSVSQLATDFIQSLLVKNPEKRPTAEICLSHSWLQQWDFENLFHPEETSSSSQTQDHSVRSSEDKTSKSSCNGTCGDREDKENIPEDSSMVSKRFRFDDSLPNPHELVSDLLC
YES1, sequence (P07947 whole entry): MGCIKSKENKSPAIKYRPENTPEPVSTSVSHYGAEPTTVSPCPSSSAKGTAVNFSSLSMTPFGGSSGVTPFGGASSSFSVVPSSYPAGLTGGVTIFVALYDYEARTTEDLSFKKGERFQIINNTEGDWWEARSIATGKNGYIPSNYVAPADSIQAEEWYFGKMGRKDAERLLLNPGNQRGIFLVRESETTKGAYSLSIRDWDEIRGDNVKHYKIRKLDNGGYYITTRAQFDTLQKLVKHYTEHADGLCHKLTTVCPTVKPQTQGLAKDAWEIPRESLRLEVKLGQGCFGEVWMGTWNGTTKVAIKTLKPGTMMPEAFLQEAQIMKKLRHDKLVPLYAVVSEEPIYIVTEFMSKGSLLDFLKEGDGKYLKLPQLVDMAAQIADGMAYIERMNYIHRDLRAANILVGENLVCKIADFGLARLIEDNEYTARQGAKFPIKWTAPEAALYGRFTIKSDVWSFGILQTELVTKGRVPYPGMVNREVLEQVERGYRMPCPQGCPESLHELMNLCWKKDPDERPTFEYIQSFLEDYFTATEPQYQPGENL
EPHA1, sequence (P21709 26-976): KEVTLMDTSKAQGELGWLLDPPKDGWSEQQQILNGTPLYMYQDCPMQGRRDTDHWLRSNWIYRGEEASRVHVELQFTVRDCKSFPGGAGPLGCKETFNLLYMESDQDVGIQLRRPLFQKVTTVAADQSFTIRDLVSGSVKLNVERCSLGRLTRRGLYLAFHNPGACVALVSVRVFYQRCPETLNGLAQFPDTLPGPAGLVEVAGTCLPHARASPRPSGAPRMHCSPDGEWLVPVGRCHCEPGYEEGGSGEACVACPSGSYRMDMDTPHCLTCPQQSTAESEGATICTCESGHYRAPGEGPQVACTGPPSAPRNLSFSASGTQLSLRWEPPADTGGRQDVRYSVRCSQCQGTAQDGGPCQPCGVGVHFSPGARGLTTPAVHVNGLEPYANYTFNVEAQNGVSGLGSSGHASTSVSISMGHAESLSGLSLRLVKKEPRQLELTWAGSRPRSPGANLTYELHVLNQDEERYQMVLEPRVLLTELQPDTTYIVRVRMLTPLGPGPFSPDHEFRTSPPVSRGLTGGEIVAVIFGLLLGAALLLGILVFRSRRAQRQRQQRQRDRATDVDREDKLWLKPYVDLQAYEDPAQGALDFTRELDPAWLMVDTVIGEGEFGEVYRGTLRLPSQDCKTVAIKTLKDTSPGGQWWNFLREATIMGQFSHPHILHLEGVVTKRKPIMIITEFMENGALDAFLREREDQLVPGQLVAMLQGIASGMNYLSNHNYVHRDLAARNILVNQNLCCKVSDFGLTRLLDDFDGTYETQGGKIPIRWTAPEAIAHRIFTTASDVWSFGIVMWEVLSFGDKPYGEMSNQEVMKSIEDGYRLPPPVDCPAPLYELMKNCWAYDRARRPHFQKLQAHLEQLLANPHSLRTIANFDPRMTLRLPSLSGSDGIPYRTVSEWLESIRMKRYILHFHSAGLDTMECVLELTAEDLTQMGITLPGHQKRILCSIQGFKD
T1 sequence (Q8IU85 whole entry): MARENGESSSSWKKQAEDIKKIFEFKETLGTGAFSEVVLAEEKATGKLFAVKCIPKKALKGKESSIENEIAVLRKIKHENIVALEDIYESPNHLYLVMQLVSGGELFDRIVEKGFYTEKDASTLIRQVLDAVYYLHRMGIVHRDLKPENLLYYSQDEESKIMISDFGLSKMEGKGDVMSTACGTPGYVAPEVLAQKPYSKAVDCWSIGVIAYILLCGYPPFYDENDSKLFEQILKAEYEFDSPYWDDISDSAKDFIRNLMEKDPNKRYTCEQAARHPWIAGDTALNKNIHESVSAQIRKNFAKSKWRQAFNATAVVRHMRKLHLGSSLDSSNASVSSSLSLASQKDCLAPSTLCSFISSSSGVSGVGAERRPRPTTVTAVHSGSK

solubility (Nephelometric solubility) [µM] | remaining activity at 1 µM (CAMK1D) [%] | remaining activity at 1 µM (CAMK1G) [%] | Tracer bound (CDK2-CCNE1) [%] | remaining activity at 1 µM (ERN2) [%] | Tracer bound (SIK1) [%] | remaining activity at 1 µM (TRKA) [%] | Tracer bound (EPHA5) [%] | remaining activity at 1 µM (FRK) [%] | remaining activity at 1 µM (MARK2) [%] | remaining activity at 1 µM (STK17B) [%] | remaining activity at 1 µM (CSNK1D) [%] | remaining activity at 1 µM (EPHA1) [%] | remaining activity at 1 µM (EPHB1) [%] | remaining activity at 1 µM (IGF1R) [%] | remaining activity at 1 µM (IRAK1) [%] | remaining activity at 1 µM (MARK3) [%] | remaining activity at 1 µM (STK26) [%] | remaining activity at 1 µM (STK32B) [%] | remaining activity at 1 µM (YES1) [%] | SMILES | also measured
45.8 (≈ 18.8 µg/mL) | 102 | 101 | 96.0 | 120 | 110.5 | 28.6 | 41.1 | 68.2 | 112 | 102 | 104 | 37.2 | 27.7 | 111 | 108 | 105 | 88.5 | 104 | 77.1 | CNC(=O)c1cc(Oc2ccc(NC(=O)Nc3cc(C(C)(C)C)on3)cc2)ccn1 [MA68, reference compound] | Target Count < 50 % tracer bound (kinases with >50% tracer displacement) ([1]; of 128 kinases): 25
47.7 (≈ 51.9 µg/mL) | 85.4 | 91.6 | 102.5 | 116 | 115.0 | 103 | 120.0 | 117 | 110 | 92.4 | 120 | 120 | 85.1 | 107 | 102 | 102 | 82.3 | 92.5 | 120 | Cc1ncsc1-c1ccc([C@H](C)NC(=O)[C@@H]2C[C@@H](O)CN2C(=O)[C@@H](NC(=O)[C@H]2CC[C@H](C(=O)N3CCN(CCNC(=O)c4cc(Oc5ccc(NC(=O)Nc6cc(C(C)(C)C)on6)cc5)ccn4)CC3)CC2)C(C)(C)C)cc1 [MA191, 4-(4-(3-(5-(tert-Butyl)isoxazol-3-yl)ureido)phenoxy)-N-(2-(4-(trans-4-(((S)-1-((2S,4R)-4-hydroxy-2-(((S)-1-(4-(4-methylthiazol-5-yl)phenyl)ethyl)carbamoyl)pyrrolidin-1-yl)-3,3-dimethyl-1-oxobutan-2-yl)carbamoyl)cyclohexanecarbonyl)piperazin-1-yl)ethyl)picolinamide] | kinases with no detectable binding (<10%) ([1]; share of the 128 kinases): 93.7%
